Assay results: patent US20100285959A1, “HERBICIDAL MIXTURES” (priority 2006, published 2010)

Tests used:
corn (ZEAMD) = test: Test 5 field trial, postemergence; type: in vivo, Zea mays ssp. indentata; details: atrazine 1120, glufosinate 470 or glyphosate 1120 g a.i./ha alone
Text: (§1) Corn seeds (hybrid ‘Pioneer 38H69’) were planted in mid spring season, 5.1 cm deep in a silty clay loam soil having 3% organic matter and a pH of 6.5. Plots were 9.1 m long by 3.0 m wide with rows spaced 76 cm apart. The field was managed using conventional tillage practices. […] All treatments included a surfactant except glufosinate treatments, both alone and in combination. […] Results are summarized in Table 5 and are the means of the three replicates.

common ragweed (AMBEL) = test: Test 5 field trial, postemergence; type: in vivo, Ambrosia artemisiifolia; details: atrazine 1120, glufosinate 470 or glyphosate 1120 g a.i./ha alone
Text: as §1

large crabgrass (DIGSA) = test: Test 5 field trial, postemergence; type: in vivo, Digitaria sanguinalis; details: atrazine 1120, glufosinate 470 or glyphosate 1120 g a.i./ha alone
Text: as §1

giant foxtail (SETFA) = test: Test 5 field trial, postemergence; type: in vivo, Setaria faberi; details: atrazine 1120, glufosinate 470 or glyphosate 1120 g a.i./ha alone
Text: as §1

field pennycress (THLAR) [1] = test: Test 5 field trial, postemergence; type: in vivo, Thlaspi arvense; details: atrazine 1120, glufosinate 470 or glyphosate 1120 g a.i./ha alone
Text: as §1

velvetleaf (ABUTH) = test: Test 6 field trial, postemergence; type: in vivo, Abutilon theophrasti; details: 1120 g a.i./ha
Text: (§2) Corn seeds (hybrid ‘Pioneer 35Y62’) were planted in mid spring season, 3.8 cm deep in a silt loam soil having 4% organic matter and a pH of 5.8. Plots were 10.7 m long by 1.5 m wide with rows spaced 76 cm apart. Seeds were spaced 18 cm apart within the rows. The field was managed using conventional tillage practices. […] All treatments included a surfactant except glufosinate treatments, both alone and in combination. […] Results are summarized in Table 6 and are the means of the three replicates.

[2] = test system: common lambsquarters (CHEAL); test: Test 6 field trial, postemergence; type: in vivo, Chenopodium album; details: 1120 g a.i./ha
Text: as §2

[3] = test system: common lambsquarters (CHEAL); test: Test 1 field trial, preemergence; type: in vivo, Chenopodium album; details: g a.i./ha: Atrazine 1680, S-Metolachlor 1870
Text: (§3) Corn seeds (hybrid ‘Pioneer 34N43’) were planted in mid spring season, 3.8 cm deep in a silt loam soil having 4.6% organic matter and a pH of 6. Plots were 10.7 m long by 1.5 m wide with rows spaced 76 cm apart. Seeds were spaced 18 cm apart within the rows. The field was managed using conventional tillage practices. […] Results are summarized in Table 1 and are the means of the three replicates. […] Colby's Equation (Colby, S. R. “Calculating Synergistic and Antagonistic Responses of Herbicide Combinations,” Weeds, 15(1), pp 20-22 (1967)) calculates the expected additive effect of herbicidal mixtures, and for two active ingredients is of the form:
(§4) Pa+b=Pa+Pb−(PaPb/100) • wherein Pa+b is the percentage effect of the mixture expected from additive contribution of the individual components, • Pa is the observed percentage effect of the first active ingredient at the same use rate as in the mixture, and • Pb is the observed percentage effect of the second active ingredient at the same use rate as in the mixture.

yellow foxtail (SETLU) = test: Test 1 field trial, preemergence; type: in vivo, Setaria glauca; details: 56 DAA; g a.i./ha: Atrazine 1680; S-Metolachlor 1870
Text: as §3, §4

field pennycress (THLAR) [4] = test: Test 1 field trial, preemergence; type: in vivo, Thlaspi arvense; details: 28 DAA; g a.i./ha: Atrazine 1680; S-Metolachlor 1870
Text: as §3, §4

common blackjack (BIDPI) = test: Test 11 field trial, preemergence; type: in vivo, Bidens pilosa; design: scale not given here
Text: (§5) Corn seeds (hybrid ‘Pioneer 3041’) were planted in mid spring season, 5 cm deep in a clay soil having 2.6% organic matter and a pH of 5.6. Plots were 8 m long by 1.5 m wide with rows spaced 80 cm apart. Seeds were spaced 15 cm apart within the rows. The field was managed using conventional tillage practices. […] Treatments consisted of Compound 2 or
(§6) Goosegrass was not evaluated 16 or 91 days after application.

alexandergrass (BRAPL) = test: Test 11 field trial, preemergence; type: in vivo, Brachiaria plantaginea; design: scale not given here
Text: as §5, §6

[5] = test system: Brazilian crabgrass (DIGHO); test: Test 11 field trial, preemergence; type: in vivo, Digitaria horizontalis; design: scale not given here
Text: as §5, §6

goosegrass (ELEIN) = test: Test 11 field trial, preemergence; type: in vivo, Eleusine indica
Text: as §5, §6

arrowleaf sida (SIDRH) = test: Test 11 field trial, preemergence; type: in vivo, Sida rhombifolia
Text: as §5, §6

[6] = 16 DAA, Cpd 2/Cpd 1 at 62 g a.i./ha, alone or + atrazine 1500 or metolachlor 2500
[7] = 16 DAA, Cpd 2/Cpd 1 at 125 g a.i./ha, alone or + atrazine 1500 or metolachlor 2500
[8] = 30 DAA, Cpd 2/Cpd 1 at 62 g a.i./ha, alone or + atrazine 1500 or metolachlor 2500
[9] = 30 DAA, Cpd 2/Cpd 1 at 125 g a.i./ha, alone or + atrazine 1500 or metolachlor 2500
[10] = 44 DAA, Cpd 2/Cpd 1 at 62 g a.i./ha, alone or + atrazine 1500 or metolachlor 2500
[11] = 44 DAA, Cpd 2/Cpd 1 at 125 g a.i./ha, alone or + atrazine 1500 or metolachlor 2500
[12] = 62 DAA, Cpd 2/Cpd 1 at 62 g a.i./ha, alone or + atrazine 1500 or metolachlor 2500
[13] = 62 DAA, Cpd 2/Cpd 1 at 125 g a.i./ha, alone or + atrazine 1500 or metolachlor 2500
[14] = 91 DAA, Cpd 2/Cpd 1 at 62 g a.i./ha, alone or + atrazine 1500 or metolachlor 2500
[15] = 91 DAA, Cpd 2/Cpd 1 at 125 g a.i./ha, alone or + atrazine 1500 or metolachlor 2500
[16] = 44 DAA, 62 g a.i./ha, scale 0 to 100
[17] = 44 DAA, 125 g a.i./ha, scale 0 to 100
[18] = 62 DAA, 62 g a.i./ha, scale 0 to 100
[19] = 62 DAA, 125 g a.i./ha, scale 0 to 100
[20] = 16 DAA, atrazine 1500 or metolachlor 2500 g a.i./ha alone
[21] = 30 DAA, atrazine 1500 or metolachlor 2500 g a.i./ha alone
[22] = 44 DAA, atrazine 1500 or metolachlor 2500 g a.i./ha alone
[23] = 62 DAA, atrazine 1500 or metolachlor 2500 g a.i./ha alone
[24] = 91 DAA, atrazine 1500 or metolachlor 2500 g a.i./ha alone
[25] = 62 DAA, 1500 g a.i./ha, scale 0 to 100

## O=C(O)CNCP(=O)(O)O [Glyphosate]
Corn (ZEAMD); 16 DAA
  ZEAMD Obs: 0%
Corn (ZEAMD); 31 DAA
  ZEAMD Obs: 0%
Common ragweed (AMBEL); 16 DAA
  AMBEL Obs: 84%
Common ragweed (AMBEL); 31 DAA
  AMBEL Obs: 100%
Large crabgrass (DIGSA); 16 DAA
  DIGSA Obs: 98%
Large crabgrass (DIGSA); 31 DAA
  DIGSA Obs: 95%
Giant foxtail (SETFA); 16 DAA
  SETFA Obs: 100%
Giant foxtail (SETFA); 31 DAA
  SETFA Obs: 98%
Field pennycress (THLAR) [1]; 16 DAA
  THLAR Obs: 98%
Field pennycress (THLAR) [1]; 31 DAA
  THLAR Obs: 100%
Velvetleaf (ABUTH); 14 DAA
  ABUTH Obs: 99%
Velvetleaf (ABUTH); 28 DAA
  ABUTH Obs: 100%
[2]; 14 DAA
  CHEAL Obs: 100%
[2]; 28 DAA
  CHEAL Obs: 100%

## CCc1cccc(C)c1N(C(=O)CCl)[C@@H](C)COC [S-Metolachlor, S-metolachlor, reference compound]
[3]; 28 DAA
  CHEAL Obs: 95
[3]; 56 DAA
  CHEAL Obs: 23
Yellow foxtail (SETLU)
  SETLU Obs: 100
Field pennycress (THLAR) [4]
  THLAR Obs: 58

## Nc1nc(C2CC2)nc(C(=O)O)c1Cl [Compound 1, 6-amino-5-chloro-2-cyclopropyl-4-pyrimidinecarboxylic acid]
Common blackjack (BIDPI); [6]
  BIDPI Obs: 60
Common blackjack (BIDPI); [7]
  BIDPI Obs: 80
Common blackjack (BIDPI); [8]
  BIDPI Obs: 60
Common blackjack (BIDPI); [9]
  BIDPI Obs: 80
Common blackjack (BIDPI); [10]
  BIDPI Obs: 40
Common blackjack (BIDPI); [11]
  BIDPI Obs: 80
Common blackjack (BIDPI); [12]
  BIDPI Obs: 40
Common blackjack (BIDPI); [13]
  BIDPI Obs: 60
Common blackjack (BIDPI); [14]
  BIDPI Obs: 0
Common blackjack (BIDPI); [15]
  BIDPI Obs: 70
Alexandergrass (BRAPL); [6]
  BRAPL Obs: 40
Alexandergrass (BRAPL); [7]
  BRAPL Obs: 40
Alexandergrass (BRAPL); [8]
  BRAPL Obs: 20
Alexandergrass (BRAPL); [9]
  BRAPL Obs: 60
Alexandergrass (BRAPL); [10]
  BRAPL Obs: 0
Alexandergrass (BRAPL); [11]
  BRAPL Obs: 40
Alexandergrass (BRAPL); [12]
  BRAPL Obs: 0
Alexandergrass (BRAPL); [13]
  BRAPL Obs: 0
Alexandergrass (BRAPL); [14]
  BRAPL Obs: 0
Alexandergrass (BRAPL); [15]
  BRAPL Obs: 0
[5]; [6]
  DIGHO Obs: 0
[5]; [7]
  DIGHO Obs: 0
[5]; [8]
  DIGHO Obs: 0
[5]; [9]
  DIGHO Obs: 20
[5]; [10]
  DIGHO Obs: 0
[5]; [11]
  DIGHO Obs: 20
[5]; [12]
  DIGHO Obs: 0
[5]; [13]
  DIGHO Obs: 0
[5]; [14]
  DIGHO Obs: 0
[5]; [15]
  DIGHO Obs: 0
Goosegrass (ELEIN); [8]
  ELEIN Obs: 0
Goosegrass (ELEIN); [9]
  ELEIN Obs: 20
Goosegrass (ELEIN); [16]
  ELEIN Obs: 0
Goosegrass (ELEIN); [17]
  ELEIN Obs: 0
Goosegrass (ELEIN); [18]
  ELEIN Obs: 0
Goosegrass (ELEIN); [19]
  ELEIN Obs: 0
Arrowleaf sida (SIDRH); [6]
  SIDRH Obs: 40
Arrowleaf sida (SIDRH); [7]
  SIDRH Obs: 75
Arrowleaf sida (SIDRH); [8]
  SIDRH Obs: 60
Arrowleaf sida (SIDRH); [9]
  SIDRH Obs: 65
Arrowleaf sida (SIDRH); [16]
  SIDRH Obs: 75
Arrowleaf sida (SIDRH); [17]
  SIDRH Obs: 95
Arrowleaf sida (SIDRH); [18]
  SIDRH Obs: 40
Arrowleaf sida (SIDRH); [19]
  SIDRH Obs: 95
Arrowleaf sida (SIDRH); 91 DAA, 62 g a.i./ha, scale 0 to 100
  SIDRH Obs: 0
Arrowleaf sida (SIDRH); 91 DAA, 125 g a.i./ha, scale 0 to 100
  SIDRH Obs: 100

## CCNc1nc(Cl)nc(NC(C)C)n1 [Atrazine, atrazine, reference compound]
[3]; 28 DAA
  CHEAL Obs: 100
[3]; 56 DAA
  CHEAL Obs: 100
Yellow foxtail (SETLU)
  SETLU Obs: 0
Field pennycress (THLAR) [4]
  THLAR Obs: 93
Corn (ZEAMD); 16 DAA
  ZEAMD Obs: 0%
Corn (ZEAMD); 31 DAA
  ZEAMD Obs: 0%
Common ragweed (AMBEL); 16 DAA
  AMBEL Obs: 45%
Common ragweed (AMBEL); 31 DAA
  AMBEL Obs: 30%
Large crabgrass (DIGSA); 16 DAA
  DIGSA Obs: 0%
Large crabgrass (DIGSA); 31 DAA
  DIGSA Obs: 0%
Giant foxtail (SETFA); 16 DAA
  SETFA Obs: 0%
Giant foxtail (SETFA); 31 DAA
  SETFA Obs: 0%
Field pennycress (THLAR) [1]; 16 DAA
  THLAR Obs: 95%
Field pennycress (THLAR) [1]; 31 DAA
  THLAR Obs: 100%
Velvetleaf (ABUTH); 14 DAA
  ABUTH Obs: 0%
Velvetleaf (ABUTH); 28 DAA
  ABUTH Obs: 0%
[2]; 14 DAA
  CHEAL Obs: 100%
[2]; 28 DAA
  CHEAL Obs: 100%
Common blackjack (BIDPI); [20]
  BIDPI Obs: 100
Common blackjack (BIDPI); [21]
  BIDPI Obs: 97
Common blackjack (BIDPI); [22]
  BIDPI Obs: 80
Common blackjack (BIDPI); [23]
  BIDPI Obs: 70
Common blackjack (BIDPI); [24]
  BIDPI Obs: 40
Alexandergrass (BRAPL); [20]
  BRAPL Obs: 75
Alexandergrass (BRAPL); [21]
  BRAPL Obs: 50
Alexandergrass (BRAPL); [22]
  BRAPL Obs: 50
Alexandergrass (BRAPL); [23]
  BRAPL Obs: 0
Alexandergrass (BRAPL); [24]
  BRAPL Obs: 0
[5]; [20]
  DIGHO Obs: 60
[5]; [21]
  DIGHO Obs: 40
[5]; [22]
  DIGHO Obs: 20
[5]; [23]
  DIGHO Obs: 0
[5]; [24]
  DIGHO Obs: 0
Goosegrass (ELEIN); [21]
  ELEIN Obs: 95
Goosegrass (ELEIN); [22]
  ELEIN Obs: 100
Goosegrass (ELEIN); [25]
  ELEIN Obs: 100
Arrowleaf sida (SIDRH); [20]
  SIDRH Obs: 97
Arrowleaf sida (SIDRH); [21]
  SIDRH Obs: 100
Arrowleaf sida (SIDRH); [22]
  SIDRH Obs: 95
Arrowleaf sida (SIDRH); [25]
  SIDRH Obs: 80
Arrowleaf sida (SIDRH); 91 DAA, 1500 g a.i./ha, scale 0 to 100
  SIDRH Obs: 90
